The source of these data is article PMC8881610 (Nature Communications, 2022).

Each structure is given as a SMILES string. Positions count from the first letter of the chain named.

Holding throughout (test): cAMP accumulation assay (LANCE Ultra cAMP kit), GIPR WT, mutant or modified constructs
Common to all, as to assay type: cell-based
Holding throughout (set-up): acylated tirzepatide to the full-length or modified; Flag; expressed in transfected cells; host or cells: HEK293T

Experiment [1] deals with T1, GIPR (Homo sapiens, UniProt P48546, E135A).
T1 sequence (P48546 22-466 E135A): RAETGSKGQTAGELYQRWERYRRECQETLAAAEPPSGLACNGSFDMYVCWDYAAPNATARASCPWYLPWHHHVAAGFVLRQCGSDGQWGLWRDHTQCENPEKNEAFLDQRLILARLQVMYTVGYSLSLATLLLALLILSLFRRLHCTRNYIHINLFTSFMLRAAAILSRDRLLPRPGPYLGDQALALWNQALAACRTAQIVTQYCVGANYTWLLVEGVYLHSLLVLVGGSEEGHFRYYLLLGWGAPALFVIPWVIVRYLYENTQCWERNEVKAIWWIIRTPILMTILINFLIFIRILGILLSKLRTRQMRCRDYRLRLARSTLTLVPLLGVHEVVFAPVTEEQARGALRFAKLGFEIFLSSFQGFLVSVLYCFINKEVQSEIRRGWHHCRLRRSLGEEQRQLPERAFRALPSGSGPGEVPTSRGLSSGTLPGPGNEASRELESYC
Particulars: GIPR E135A, HEK293T. The essentials: (§1)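 HEK293T cells transiently transfected with human GIPR WT or mutant constructs (pcDNA3.1), used after 24 h. The cells were stimulated with peptide agonists for 40 min at RT in HBSS with 5 mM HEPES, 0.1% BSA or casein, and 0.5 mM IBMX. cAMP was read by LANCE Ultra TR-FRET (Eu-cAMP tracer/ULight anti-cAMP, 1 h RT, 620/650 nm).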

Experiment [2] has as its target T2, GIPR (Homo sapiens, UniProt P48546, R370A).
T2 sequence (P48546 22-466 R370A): T1 sequence (P48546 22-466 E135A) with A114E, R349A
The settings on record: HEK-293T, GIPR R370A; HEK293T. In short, it runs like this:
as §1

In experiment [3] the target is T3, GIPR (Homo sapiens, UniProt P48546, Q285A).
T3 sequence (P48546 22-466 Q285A): T1 sequence (P48546 22-466 E135A) with A114E, Q264A
Particulars: GIPR Q285A, HEK293T. The essentials:
as §1

The mark [4] stands for this setting: read-out: cAMP pEC50 (converted).

Consider `CCCCCCCCCCCCCCCC(=O)N[C@@H](CCC(=O)NCCCC[C@H](NC(=O)[C@H](CC(=O)O)NC(=O)[C@H](CO)NC(=O)[C@@H](NC(=O)[C@H](Cc1ccccc1)NC(=O)[C@@H](NC(=O)CNC(=O)[C@H](CCC(N)=O)NC(=O)C(C)(C)NC(=O)[C@@H](N)Cc1c[nH]cn1)[C@@H](C)O)[C@@H](C)O)C(=O)N[C@@H](CO)C(=O)N[C@@H](CCCCN)C(=O)N[C@@H](Cc1ccc(O)cc1)C(=O)N[C@@H](CC(C)C)C(=O)N[C@@H](CC(=O)O)C(=O)N[C@@H](CCC(=O)O)C(=O)N[C@@H](CCCNC(=N)N)C(=O)N[C@@H](C)C(=O)N[C@@H](C)C(=O)N[C@@H](CCC(N)=O)C(=O)N[C@@H](CC(=O)O)C(=O)N[C@@H](Cc1ccccc1)C(=O)N[C@H](C(=O)N[C@@H](CCC(N)=O)C(=O)N[C@@H](Cc1c[nH]c2ccccc12)C(=O)N[C@@H](CC(C)C)C(=O)N[C@@H](CC(C)C)C(=O)N[C@@H](CC(=O)O)C(=O)NCC(=O)NCC(=O)N1CCC[C@H]1C(=O)N[C@@H](CO)C(=O)N[C@@H](CO)C(=O)NCC(=O)N[C@@H](C)C(=O)N1CCC[C@H]1C(=O)N1CCC[C@H]1C(=O)N1CCC[C@H]1C(=O)N[C@@H](CO)C(N)=O)C(C)C)C(=O)O` [Peptide 20], for which the EC50 is 0.0427 nM on GIPR [1] (setting [4]) and 0.0417 nM on GIPR [3] (setting [4]). Besides, the Emax at GIPR [1] (HEK-293T) worked out at 100 ± 1.44%; at GIPR [2] it was 71.5 ± 2.85%; on GIPR [3] (HEK-293T), 97.6 ± 1.37%.
